Source: patent US20250204541A1, “GAS PHASE TREATMENT OF PRODUCE” (priority 2022, published 2025)

Columns and labels:
Type in all cases: in vivo
[1] = tested on: Penicillium digitatum (Pd); test: Antifungal activity of vapor against Penicillium digitatum in wounded, infected mandarins; settings: for effect on Pd mold: airtight container, assessed after 6 days
Experimental: Example 4. The antifungal activity of a range of AITC vapor concentrations was tested against Pd in mandarins. All mandarins were wounded by puncturing with a screw and infected by dispensing 1000 Pd spores suspended in 10 μL of water in each wound. The fruit was then placed in an airtight container, a range of AITC volumes were disposed onto a Whatman filter paper disc, the disc was suspended in front of a battery-powered fan, and the container closed for 18 hours. The mandarins were then left at ambient temperature and high humidity for 6 days. The test groups were mandarins that were infected and untreated, and infected and treated with 62.5 μL, 125 μL, 250 μL, and 500 μL on the filter paper disc. […] FIG. 6 is a bar graph showing incidence (% infected) for the test groups.
Example 5. The antifungal activity of a range of AITC vapor exposure times was tested to determine the effects against Pd in mandarins. All samples were wounded by puncturing with a screw. Mandarins were infected by dispensing 1000 Pd spores suspended in 10 μL of water in the wound. The fruit was then placed in an airtight container, 125 μL of AITC was dispensed onto a Whatman filter paper disc, the disc suspended in front of a battery-powered fan, and the container closed for 15 minutes to 2 hours. The test groups were then left at ambient temperature, high humidity, and assessed for Pd mold after 6 days. The test groups consisted of mandarins that were: uninfected and untreated; infected and untreated; infected and treated with 0.5 g/L imazalil; infected, treated with 125 μL of AITC on the filter paper, and exposed to the vapor for 15 minutes, 30 minutes, 1 hour, and 2 hours.

[2] = tested on: Colletotrichum gloeosporioides (Cg); test: Antifungal activity of vapor against Colletotrichum gloeosporioides in avocados
Experimental: Example 7. The antifungal activity of AITC and DADS vapor against Colletotrichum gloeosporioides (Cg) was tested in avocados. All test pieces were wounded by removing the stem and infected by dispensing 1000 Cg spores suspended in 10 μL of water into the wound. The test groups consisted of avocados that were: untreated and uninfected; untreated and infected; treated by dipping in a solution of 0.1 g/L of prochloraz; exposed to the vapor of 3 mL of AITC disposed in a Petri dish; and exposed to the vapor of 3 mL of DADS disposed in a Petri dish. FIG. 9 quantifies the infection results. AITC vapor reduced the incidence of Cg mold by 97% compared to the untreated test group and 70% compared to the prochloraz treated test group. DADS vapor reduced the incidence of Cg mold by 60% compared to the untreated test group.
Example 8. The antifungal activity of a range of DADS vapor exposure times was tested against Cg in avocados. All test pieces were wounded by removing the stem and infected by dispensing 1000 Cg spores suspended in 10 μL of water into the wound. The test groups consisted of avocados that were: infected and untreated; and exposed to the vapor of 3 mL of DADS in a Petri dish for 24 hours, 48 hours, and 72 hours. FIG. 10 quantifies the infection results. Test group exposed to DADS vapor at all exposure times reduced the incidence of Cg mold compared to the untreated test group. A 24 hour DADS exposure reduced the incidence of Cg mold by 8%. A 48 hour DADS exposure reduced the incidence of Cg mold by 25%. A 72 hour DADS exposure reduced the incidence of Cg mold by 57%.
Example 9. The antifungal activity of a range of AITC and carvacrol vapor exposure times was tested against Cg in avocados. To measure the effect of the various treatments on ripening, durometer shore was taken after 7 days of incubation at ambient temperature and high humidity. All samples were wounded by removing the stem and infected by dispensing 1000 Cg spores suspended in 10 μL of water in the wound. The test groups consisted of avocados that were: infected and left untreated on the benchtop; infected and left untreated under a fume hood; exposed to the vapor of 3 mL of AITC in a Petri dish for 24 hours, 48 hours, and 72 hours; and exposed to the vapor of 3 mL of carvacrol in a Petri dish for 72 hours. FIG. 11 quantifies the infection results. […] All exposure times to AITC vapor reduced the incidence of Cg mold compared to the untreated samples. A 24 hour AITC exposure reduced the incidence of Cg mold by 90%. A 48 hour AITC exposure reduced the incidence of Cg mold by 97%. A 72 hour AITC exposure reduced the incidence of Cg mold by 83%. […]
Example 21. The antifungal activity of avocados exposed to AITC vapor and prochloraz was tested against Cg in avocados. To measure the effect of the various treatments on ripening, durometer shore was taken after 5 days of incubation at ambient temperature (about 20° C. to about 25° C.) and high humidity (about 88% relative humidity to about 93% relative humidity). All samples were wounded by removing the stem and infected by dispensing 1000 Cg spores suspended in 10 μL of water in the wound. Exposure to vapor was done by placing the avocados in an airtight container, dispensing AITC onto Whatman filter paper discs, suspending the discs in front of a battery-powered fan, closing the container and incubating the avocados for 30 minutes. After vapor exposure, the avocados were left at ambient temperature, high humidity, and assessed for Cg mold on day 5. Treatment groups consisted of avocados that were: exposed for 30 minutes to the vapor of 125 μL of AITC disposed on a filter paper disc; dipped in a solution of 0.1 g/L of prochloraz and placed to dry on a rack in front of a fan for 30 min; infected and left untreated; and uninfected and untreated. […] To prepare the 0.1 g/L of prochloraz, 10 mg of prochloraz was mixed with 10 mL of ethanol and 90 mL of water. […] A 24 hour AITC exposure reduced the incidence of Cg mold by 90%. […]

Botrytis cinerea (Bc) = test: Antifungal activity of vapor against Botrytis cinerea in grapes; settings: vapor of 3 mL in a Petri dish for 72 hours
Experimental: (§1) Example 12. The antifungal activity of AITC and DADS vapor against Botrytis cinerea (Bc) in grapes was tested. All samples were wounded by making a 3 mm deep puncture in the skin. Samples were infected by dispensing 1000 Bc spores suspended in 10 μL of water in the wound. The test groups consisted of grapes that were: uninfected and untreated; infected and untreated; exposed to the vapor of 3 mL of AITC in a Petri dish for 72 hours; and exposed to the vapor of 3 mL of DADS in a Petri dish for 72 hours. FIG. 17 quantifies the infection results. […] Both AITC and DADS vapor were effective at controlling Bc mold. Treatment with AITC can potentially lead to changes in color or flavor of the grapes.

grapes = test: Visible appearance of vapor-treated grapes
Experimental: as §1

[3] = mandarins, 72 hours vapor of 3 mL in a Petri dish

C=CCN=C=S [AITC, allyl isothiocyanate]
inhibition of fungal growth ([1]; mandarins infected with Pd, 72 hours vapor of 3 mL in a Petri dish): approximately 100% | effect on Pd mold ([1]; mandarins, 125 μL on filter paper (730 ppm), 30 min exposure): greatly reduced severity of Pd mold infection | effect on Pd infection ([1]; mandarins, 125 μL on filter paper disc, airtight container with fan, 18 hours, then 6 days): substantially prevented the growth mold | effect on Pd mold ([1]; mandarins, 125 μL on filter paper, 15 minute exposure): little effect on Pd mold | effect on Pd mold ([1]; mandarins, 125 μL on filter paper, 1 hour exposure): greatly reduced severity and incidence of Pd mold | effect on Pd infection ([1]; mandarins, 250 μL on filter paper disc, airtight container with fan, 18 hours, then 6 days): substantially prevented the growth mold | effect on Pd infection / mold growth [1, 3]: substantially prevented | effect on Pd infection ([1]; mandarins, vapor of 500 μL in a Petri dish for 72 hours): substantially prevented Pd infections | reduction of the incidence of Cg mold ([2]; 24 hour AITC exposure as printed): 90% | reduction of the incidence of Cg mold ([2]; Example 9, vapor of 3 mL in a Petri dish for 24 hours, 7 days of incubation): 90% | reduction of the incidence of Cg mold ([2]; Example 9, vapor of 3 mL in a Petri dish for 48 hours, 7 days of incubation): 97% | reduction of the incidence of Cg mold ([2]; Example 9, vapor of 3 mL in a Petri dish for 72 hours, 7 days of incubation): 83% | incidence of Cg mold ([2]; Example 21, 30 minutes vapor of 125 μL on filter paper disc, assessed on day 5): reduced the incidence of Cg mold compared to the untreated samples and the prochloraz treated sample | reduction of the incidence of Cg mold compared to the untreated test group ([2]; vapor of 3 mL in a Petri dish): 97% | reduction of the incidence of Cg mold compared to the prochloraz treated test group ([2]; vapor of 3 mL in a Petri dish, prochloraz 0.1 g/L dip): 70% | effect on Bc mold (Botrytis cinerea (Bc)): substantially eliminated Bc mold | visible appearance of treated fruit (grapes; in vivo): darkening of the fruit

C=CCSSCC=C [DADS, diallyl disulfide]
effect on Pd infection / mold growth [1, 3]: substantially prevents Pd mold growth | reduction of the incidence of Pd mold compared to the untreated samples ([1]; mandarins, exposed for 72 hours to the vapor of 3 mL in a Petri dish): 85% | reduction of the incidence of Cg mold ([2]; Example 8, vapor of 3 mL in a Petri dish for 24 hours): 8% | reduction of the incidence of Cg mold ([2]; Example 8, vapor of 3 mL in a Petri dish for 48 hours): 25% | reduction of the incidence of Cg mold ([2]; Example 8, vapor of 3 mL in a Petri dish for 72 hours): 57% | reduction of the incidence of Cg mold compared to the untreated test group ([2]; vapor of 3 mL in a Petri dish): 60% | effect on Bc mold (Botrytis cinerea (Bc)): substantially eliminated Bc mold | visible appearance of treated fruit (grapes; grapes, vapor of 3 mL in a Petri dish for 72 hours): appeared unchanged
